Laboratory results taken from ChEMBL document CHEMBL3885861, “Open TG-GATES”.

Species on record: Rattus norvegicus
Assay: Open TG-GATES - Regimen: Single
Type: toxicity, organism-based, Sprague-Dawley
Design: regimen Single, gender Male, age 6 weeks
Settings: in vivo, po, 50 mg/kg, route gavage, dose level Middle; for APTT / Bas / Eos / Fbg / Hb / Ht / Lym / MCH / MCHC / MCV / Mono / Neu / PT / Plat / RBC / Ret / WBC: tissue Blood; for KIDNEY_L / KIDNEY_R / KIDNEY_TOTAL: tissue Kidney; for LIVER: tissue Liver; for A/G / ALP / ALT / AST / BUN / CRE / Ca / Cl / DBIL / GLC / IP / K / LDH / Na / PL / RALB / TBIL / TC / TG / TP / gamma-GTP: tissue Plasma

CN(C)CCC=C1c2ccccc2CCc2ccccc21 [AMITRIPTYLINE]
TERMINAL_BW (3 h): 194.1 g
APTT (3 h): 16.5 s
Bas (3 h): 0.4%
Eos (3 h): 1%
Fbg (3 h): 273 mg/dL
Hb (3 h): 13.2 g/dL
Ht (3 h): 41.1%
Lym (3 h): 74%
MCH (3 h): 21.1 pg
MCHC (3 h): 32.2%
MCV (3 h): 65.4 fL
Mono (3 h): 3.4%
Neu (3 h): 20.4%
PT (3 h): 15.8 s
Plat (3 h): 128.6 x10_4/uL
RBC (3 h): 629.2 x10_4/ul
Ret (3 h): 9.2%
WBC (3 h): 102.1 x10_2/uL
KIDNEY_L (3 h): 0.9 g
KIDNEY_R (3 h): 0.9 g
KIDNEY_TOTAL (3 h): 1.7 g
LIVER (3 h): 8.7 g
A/G (3 h): 0.8
ALP (3 h): 1574.4 IU/L
ALT (3 h): 62.8 IU/L
AST (3 h): 79 IU/L
BUN (3 h): 8 mg/dL
CRE (3 h): 0.2 mg/dL
Ca (3 h): 11 mg/dL
Cl (3 h): 107.8 meq/L
DBIL (3 h): 0.012 mg/dL
GLC (3 h): 192.8 mg/dL
IP (3 h): 9.3 mg/dL
K (3 h): 4.2 meq/L
LDH (3 h): 90.8 IU/L
Na (3 h): 144.2 meq/L
PL (3 h): 143.2 mg/dL
RALB (3 h): 2.5 g/dL
TBIL (3 h): 0.062 mg/dL
TC (3 h): 78.8 mg/dL
TG (3 h): 42.8 mg/dL
TP (3 h): 5.5 g/dL
gamma-GTP (3 h): 0.8 IU/L
TERMINAL_BW (6 h): 191.7 g
APTT (6 h): 15.9 s
Bas (6 h): 0.4%
Eos (6 h): 1%
Fbg (6 h): 283 mg/dL
Hb (6 h): 13.1 g/dL
Ht (6 h): 40.7%
Lym (6 h): 72.6%
MCH (6 h): 20.9 pg
MCHC (6 h): 32.4%
MCV (6 h): 64.7 fL
Mono (6 h): 3%
Neu (6 h): 22.4%
PT (6 h): 15.9 s
Plat (6 h): 117.4 x10_4/uL
RBC (6 h): 629.4 x10_4/ul
Ret (6 h): 9.3%
WBC (6 h): 84.5 x10_2/uL
KIDNEY_L (6 h): 0.9 g
KIDNEY_R (6 h): 0.9 g
KIDNEY_TOTAL (6 h): 1.8 g
LIVER (6 h): 7.9 g
A/G (6 h): 0.9
ALP (6 h): 1530.6 IU/L
ALT (6 h): 47 IU/L
AST (6 h): 76.4 IU/L
BUN (6 h): 6.8 mg/dL
CRE (6 h): 0.1 mg/dL
Ca (6 h): 10.7 mg/dL
Cl (6 h): 106.8 meq/L
DBIL (6 h): 0.006 mg/dL
GLC (6 h): 179.2 mg/dL
IP (6 h): 9.9 mg/dL
K (6 h): 4.1 meq/L
LDH (6 h): 65.4 IU/L
Na (6 h): 143.4 meq/L
PL (6 h): 138.2 mg/dL
RALB (6 h): 2.5 g/dL
TBIL (6 h): 0.07 mg/dL
TC (6 h): 81.2 mg/dL
TG (6 h): 34.8 mg/dL
TP (6 h): 5.5 g/dL
gamma-GTP (6 h): 0.8 IU/L
TERMINAL_BW (9 h): 188 g
APTT (9 h): 16.3 s
Bas (9 h): 0%
Eos (9 h): 1%
Fbg (9 h): 282.6 mg/dL
Hb (9 h): 13.2 g/dL
Ht (9 h): 40.4%
Lym (9 h): 74%
MCH (9 h): 21.1 pg
MCHC (9 h): 32.7%
MCV (9 h): 64.5 fL
Mono (9 h): 2.2%
Neu (9 h): 22%
PT (9 h): 15.7 s
Plat (9 h): 117.9 x10_4/uL
RBC (9 h): 626.2 x10_4/ul
Ret (9 h): 8.6%
WBC (9 h): 86.3 x10_2/uL
KIDNEY_L (9 h): 0.8 g
KIDNEY_R (9 h): 0.8 g
KIDNEY_TOTAL (9 h): 1.6 g
LIVER (9 h): 7.4 g
A/G (9 h): 0.9
ALP (9 h): 1395.8 IU/L
ALT (9 h): 42.4 IU/L
AST (9 h): 73.8 IU/L
BUN (9 h): 8 mg/dL
CRE (9 h): 0.1 mg/dL
Ca (9 h): 10.8 mg/dL
Cl (9 h): 107.2 meq/L
DBIL (9 h): 0.014 mg/dL
GLC (9 h): 170.2 mg/dL
IP (9 h): 9.9 mg/dL
K (9 h): 4.2 meq/L
LDH (9 h): 72.8 IU/L
Na (9 h): 142.4 meq/L
PL (9 h): 143.4 mg/dL
RALB (9 h): 2.5 g/dL
TBIL (9 h): 0.062 mg/dL
TC (9 h): 79.2 mg/dL
TG (9 h): 49.8 mg/dL
TP (9 h): 5.4 g/dL
gamma-GTP (9 h): 1 IU/L
TERMINAL_BW (24 h): 205.9 g
APTT (24 h): 16.7 s
Bas (24 h): 0.2%
Eos (24 h): 1%
Fbg (24 h): 268 mg/dL
Hb (24 h): 13.1 g/dL
Ht (24 h): 39.8%
Lym (24 h): 79.2%
MCH (24 h): 21.1 pg
MCHC (24 h): 32.8%
MCV (24 h): 64.4 fL
Mono (24 h): 2.6%
Neu (24 h): 16.2%
PT (24 h): 16.4 s
Plat (24 h): 117.1 x10_4/uL
RBC (24 h): 618.8 x10_4/ul
Ret (24 h): 8.8%
WBC (24 h): 101.4 x10_2/uL
KIDNEY_L (24 h): 0.9 g
KIDNEY_R (24 h): 0.9 g
KIDNEY_TOTAL (24 h): 1.7 g
LIVER (24 h): 9.2 g
A/G (24 h): 0.8
ALP (24 h): 1528.4 IU/L
ALT (24 h): 49.8 IU/L
AST (24 h): 72.6 IU/L
BUN (24 h): 14.2 mg/dL
CRE (24 h): 0.2 mg/dL
Ca (24 h): 11 mg/dL
Cl (24 h): 105.2 meq/L
DBIL (24 h): 0.018 mg/dL
GLC (24 h): 181.6 mg/dL
IP (24 h): 7.1 mg/dL
K (24 h): 4.3 meq/L
LDH (24 h): 69.2 IU/L
Na (24 h): 142.6 meq/L
PL (24 h): 153 mg/dL
RALB (24 h): 2.6 g/dL
TBIL (24 h): 0.056 mg/dL
TC (24 h): 82.6 mg/dL
TG (24 h): 97.8 mg/dL
TP (24 h): 5.6 g/dL
gamma-GTP (24 h): 0.2 IU/L
